Here are results for eight molecules from patent publication US20060185030A1, “Cytokinin response regulators and uses thereof” (priority 2001, published 2006).

One assay concerns CKI1-GFP. In words: GFP fusion expression and localization in transfected protoplasts (confocal microscopy). The note with it: tunicamycin 1 μg/ml, 12 hours. The format is cell-based, Arabidopsis. How it is done:
To gain insight into where the cytokinin signalling is perceived, the sub-cellular localization of CKI1 was examined using the CKI1-GFP fusion. We first confirmed that CKI1-GFP acted similarly as CKI1-HA in the protoplast assay based on ARR6-LUC activation (FIG. 1D). […] Specifically, protoplasts were transfected with CKI1-GFP or various GFP marker plasmid DNA. Tunicamycin (1 μg/ml) treatment was for 12 hours. The transfected protoplasts were analyzed with a confocal microscope. The subcellular GFP markers are “CAT-GFP” for the cytosol, “ER-GFP” for the endoplasmic reticulum, and “N-GFP” (HSP-GFP) for the nucleus. Since the N-terminus of CKI1 is replete with putative glycosylation sites, the effect of a glycosylation inhibitor, tunicamycin, in CKI1-GFP expression, localization or function was examined.

A further assay has as its system ARR6 promoter. The assay can be described thus: Arabidopsis mesophyll protoplast transient expression assay, ARR6-LUC reporter. The note with it: for activity of ARR6-LUC (hormone specificity): 100 nM t-zeatin, 1 μM IAA or 100 μM ABA, 3 hours of incubation; for induction of the reporter gene ARR6-LUC by cytokinin analogues: 100 nM, FIG. 1C; for activation of ARR6-LUC by over-expressed effector: absence of exogenous cytokinin. The format is cell-based. How it is done: To elucidate the regulatory circuitry in cytokinin signal transduction, a leaf cell assay based on cytokinin inducible transcription in Arabidopsis mesophyll protoplasts was developed. The 2.4 kb promoter of an Arabidopsis cytokinin primary response gene (SEQ ID NO.: 1), encoding the response regulator 6 (ARR6), was fused to the firefly luciferase (LUC) reporter. In FIG. 1A, transfected protoplasts were incubated with or without 100 nM t-zeatin, 1 μM indole-3-acetic acid (IAA), or 100 μM ABA. After 3 hours of incubation, LUC and GUS activities were determined.
(§1) Arabidopsis Bensheim (BE) protoplasts were isolated and transfected as described with some modifications (Kovtun et al., Proc. Natl. Acad. Sci. USA 97: 2940-5 2000). […] For instance, in the experiments shown in FIG. 1A, protoplasts (4×10^4) were transfected with 2 μg of UBQ10-GUS (internal control) and 20 μg of ARR6-LUC, GH3-LUC, or RD29ALUC plasmid DNA. Transfected protoplasts were incubated at 1×10^4 per mil with/without 1-100 nM of t-zeatin for 3-6 hours under the light at 23° C. The UBQ10-GUS construct was used as an internal control to normalize the variations of each transfection in cell numbers, transformation efficiency and cell viability. […] GFP fluorescence was observed by either Nikon TE200 fluorescent microscopy or Leica TCSNT confocal microscopy.
(In general: Reporter assays use an easily measured gene product as a stand-in for the process of interest.)

Another assay concerns RD29A promoter. In words: Arabidopsis mesophyll protoplast transient expression assay, RD29A-LUC reporter. The format is cell-based. The note with it: 100 μM ABA, 3 hours.
The next assay has as its system GH3 promoter. The assay can be described thus: Arabidopsis mesophyll protoplast transient expression assay, GH3-LUC reporter. The note with it: 1 μM IAA, 3 hours. The assay is classed as cell-based.
Another assay deals with Arabidopsis seedlings. The assay can be described thus: Seedling cytokinin response assay. The format is in vivo. The note with it: medium with 0.15 mg/L IAA alone or with 0.15 mg/L IAA and 5 mg/L 2IP, 14 days. An excerpt: In tissue culture, induction of cell proliferation and subsequent shoot formation require cytokinin. To determine whether the same cytokinin signalling pathway is responsible for transcription regulation, cell proliferation, shoot meristem initiation, and leaf formation, we developed a seedling cytokinin response assay. In FIGS. 4A and 4B, Arabidopsis seedlings were transformed with Agrobacteria carrying GFP, CKI1, CKI1 (H405Q), ARR2, and ARR6 constructs in the mini-binary vector pCB302 (Xiang et al., Plant Mol. Biol. 40: 711-7, 1999). Seedlings transformed with the Agrobacteria carrying the binary vector pCB301 […] a Bar selection marker were used as a transformation control (vector). The transformed seedlings were selected with glufosinate ammonium (10 μg/ml) and maintained on medium with auxin (IAA) only (FIG. 4A, +IAA, −2IP) or with auxin and cytokinin (FIG. 4B, +IAA, +2IP) for 14 days. The transformed tissues were mostly derived from the shoot apical meristem. […] Both CKI1 and ARR2 promoted extensive cell proliferation and shoot formation even without exogenous cytokinin. The experiments were repeated three times with similar results. […] The results of this cytokinin seedling assay are consistent with those from protoplast transient expression analyses based on transcription. […]

A further assay concerns AHP1-GFP. The note with it: 100 nM t-zeatin, 30 minutes. How it is done: (§2) To gain further in vivo support for the involvement of AHPs in cytokinin signalling, the action of AHP1-GFP in transfected protoplast in the absence or presence of cytokinin was followed using fluorescence microscopy. Specifically, protoplasts were transfected with AHP1-GFP, AHP2-GFP, or AHP5-GFP and incubated for 3 hours to allow sufficient expression.
as §1

In another assay the test system is AHP5-GFP. The note with it: 100 nM t-zeatin, 30 minutes. As for the experimental part:
as §2, §1

With tunicamycin, the “expression of CKI1-GFP” value in the assay with CKI1-GFP is reported as “completely abolished”. Further, in the assay on CKI1-GFP (CAT-GFP, ER-GFP, N-GFP markers), the “expression of other GFP constructs” value is recorded as “did not affect”.
With `CC1=CC(=O)CC(C)(C)[C@@]1(O)/C=C/C(C)=C\C(=O)O` [ABA, abscisic acid], in the assay with ARR6 promoter, the “activity of ARR6-LUC (hormone specificity)” value (“activity of ARR6-LUC” below) is listed as “not by other plant hormones”. Further, the RD29A promoter induction entry with RD29A promoter is listed as “solely induced”.
For the molecule `O=C(O)Cc1c[nH]c2ccccc12` [IAA, indole-3-acetic acid], the “activity of ARR6-LUC” value in the assay with ARR6 promoter is given as “not by other plant hormones”. In addition, in the assay on GH3 promoter, the GH3 promoter activation result is “only activated”. Further, the “callus / shoot formation of GFP control transformed seedlings” value with Arabidopsis seedlings is recorded as “green callus formation”.
In the case of `c1ccc(CNc2ncnc3nc[nH]c23)cc1` [BA, benzyladenine], in the assay with ARR6 promoter, the “induction of the reporter gene ARR6-LUC by cytokinin analogues” value is given as “induced”.
On to `C/C(=C\CNc1ncnc2nc[nH]c12)CO` [t-zeatin, trans-zeatin], for which, in the assay on ARR6 promoter, the “activity of ARR6-LUC” value was “specifically induced” and the “induction of the reporter gene ARR6-LUC by cytokinin analogues” value was “induced”. For the same molecule, in the assay with AHP1-GFP, the “AHP1-GFP localization after cytokinin treatment” value was “translocated into the nucleus”. In addition, the AHP5-GFP cytokinin-dependent translocation result in the assay on AHP5-GFP is “not”.

B1: ARR1: Arabidopsis B-type response regulator (SEQ ID NO.: 2), over-expressed from effector plasmid (protein, listed as Arabidopsis thaliana)
chain: MALSLLRKNKHGFDIVISDVHMPDMDGFKLLEHVGLEMDLPVIMMSADDSKSVVLKGVTHGAVDYLIKPVRMEALKNIWQHVVRKRRSEWSVPEHSGSIEETGERQQQQHRGGGGGAAVSGGEDAVDDNSSSVNEGNNWRSSSRKRKDEEGEEQGDDKDEDASNLKKPRVVWSVELHQQFVAAVNQLGVEKAVPKKILELMNVPGLTRENVASHLQKYRIYLRRLGGVSQHQGNLNNSFMTGQDASFGPLSTLNGFDLQALAVTGQLPAQSLAQLQAAGLGRPAMVSKSGLPVSSIVDERSIFSFDNTKTRFGEGLGHHGQQPQQQPQMNLLHGVPTGLQQQLPMGNRMSIQQQIAAVRAGNSVQNNGMLMPLAGQQSLPRGPPPMLTSSQSSIRQPMLSNRISERSGFSGRNNIPESSRVLPTSYTNLTTQHSSSSMPYNNFQPELPVNSFPLASAPGISVPVRKATSYQEEVNSSEAGFTTPSYDMFTTRQNDWDLRNIGIAFDSHQDSESAAFSASEAYSSSSMSRHNTTVAATEHGRNHQQPPSGMVQHHQVYADGNGGSVRVKSERVATDTATMAFHEQYSNQEDLMSALLKQEGIAPVDGEFDFDAYSIDNIPV
Turning to B1, the “activation of ARR6-LUC by over-expressed effector” value with ARR6 promoter is on record as “about 40 fold”.

B2: ARR2: Arabidopsis B-type response regulator (SEQ ID NO.: 3), over-expressed from effector plasmid (protein, listed as Arabidopsis thaliana)
chain: MVNPGHGRGPDSGTAAGGSNSDPFPANLRVLVVDDDPTCLMILERMLMTCLYREQRAHCLCFGRTKNGFDIVISDVHMPDMDGFKLLEHVGLEMDLPVINLNVLKPLVIVMSADDSKSVVLKGVTHGAVDYLIKPVRIEALKNIWQHVVRKKRNEWNVSEHSGGSIEDTGGDRDRQQQHREDADNNSSSVNEGNGRSSRKRKEEEVDDQGDDKEDSSSLKKPRVVWSVELHQQFVAAVNQLGVDSELKTCLLMHLCVSIGNIVEFQKYRIYLRRLGGVSQHQGNMNHSFMTGQDQSFGPLSSLNGFDLQSLAVTGQLPPQSLAQLQAAGLGRPTLAKPGMSVSPLVDQRSIFNFENPKIRFGDGHGQTMNNGNLLHGVPTGSHMRLRPGQNVQSSGMMLPVADQLPRGGPSMLPSLGQQPILSSSVSRRSDLTGALAVRNSIPETNSRVLPTTHSVFNNFPADLPRSSFPLASAPGISVPVSVSYQEEVNSSDAKGGSSAATAGFGNPSYDIFNDFPQHQQHNKNISNKLNDWDLRNMGLVFSSNQDAATATATAAFSTSEAYSSSSTQRKRRETDATVVGEHGQNLQSPSRNLYHLNHVFMDGGSVRVKSERVAETVTCPPANTLFHEQYNQEDLMSAFLKQV
Take B2: the “activation of ARR6-LUC by over-expressed effector” value in the assay on ARR6 promoter is on record as roughly 400 fold. Further, in the assay with ARR6 promoter (with cytokinin (100 nM t-zeatin, 3 hours)), the “activation of ARR6-LUC by over-expressed effector with cytokinin treatment” value is listed as “over 1000 fold”.

B3: ARR10: Arabidopsis B-type response regulator (SEQ ID NO.: 9), over-expressed from effector plasmid (protein, listed as Arabidopsis thaliana)
chain: MTMEQEIEVLDQFPVGMRVLAVDDDQTCLRILQTLLQRCQYHVTTTNQAQTALELLRENKNKFDLVISDVDMPDMDGFKLLELVGLEMDLPVIMLSAHSDPKYVMKGVKHGACDYLLKPVRIEELKNIWQHVVRKSKLKKNKSNVSNGSGNCDKANRKRKEQYEEEEEEERGNDNDDPTAQKKPRVLWTHELHNKFLAAVDHLGVERAVPKKILDLMNVDKLTRENVASHLQKFRVALKKVSDDAIQQANRAAIDSHFMQMNSQKGLGGFYHHHRGIPVGSGQFHGGTTMMRHYSSNRNLGRLNSLGAGMFQPVSSSFPRNHNDGGNILQGLPLEELQINNNINRAFPSFTSQQNSPMVAPSNLLLLEGNPQSSSLPSNPGFSPHFEISKRLEHWSNAALSTNIPQSDVHSKPDTLEWNAFCDSASPLVNPNLDTNPASLCRNTGFGSTNAAQTDFFYPLQMNQQPANNSGPVTEAQLFRSSNPNEGLLMGQQKLQSGLMASDAGSLDDIVNSLMTQEQSQSDFSEGDWDLDGLAHSEHAYEKLHFPFSLSA
As to B3, the “activation of ARR6-LUC by over-expressed effector” value in the assay on ARR6 promoter is “about 10 fold”. Also, the “further enhancement by cytokinin of effector's effect on ARR6-LUC activity” value in the assay on ARR6 promoter (with cytokinin, relative to effector alone) was 10-20 fold.
